Read-outs that look alike come from different tables or passages of the source. Where only a bound is given, the exact number is not on record here.

Experiment [1] has as its system Candida albicans. Kind of experiment: Activity of compounds (I) against vaginal candidosis in rats. The experiment is classed as in vivo, Female Wistar rats. Particulars: 336 h, oral once a day for two days from day of infection, active at the 14th day after infection. As for the experimental part: Experiment A: Activity of compounds (I) against vaginal candidosis in rats Female Wistar rats of ± 100 g body weight were used. They were ovariectomized and hysterectomized and after three weeks of recovery, 100 μg of oestradiol undecylate in sesame oil was given subcutaneously once a week for 3 consecutive weeks. The thus induced pseudooestrus was controlled by microscopic examination of vaginal smears. Food and water were left available ad libitum. The rats were infected intravaginally with 8.10^5 cells of Candida albicans, grown on Sabouraud broth for 48 hours at 37° C. and diluted with saline. The date of infection varied from day +25 to day +32 after surgical intervention, depending on the appearance of signs of induced pseudo-oestrus. The drugs under investigation were administered orally once a day for two days starting from the day of infection. For each experiment there were placebo treated controls. The results were assessed by taking vaginal smears with sterile swabs on several days after the infection. The swabs were put into Sabouraud broth in petri-dishes and incubated for 48 hours at 37° C. If no growth of Candida albicans occured, i.e., when the animals were negative at the end of the experiment, this was due to drug administration because it never happened in placebo treated controls. The tables I and II below give the lowest oral dose of the drug under investigation which was found active at the 14th day after infection.

Experiment [2] has as its system Candida albicans. Kind of experiment: Activity of compounds (I) against crop candidosis in turkeys. As to conditions: medicated feed for 13 consecutive days from day of infection, crops of 50% of animals completely negative for Candida albicans; for Crop candidosis in Turkeys: ED50 in mg/kg of feed.: Table I. The experiment is classed as in vivo. As for the experimental part: Experiment B: Activity of compounds (I) against crop candidosis in turkeys Turkeys of 14 days old were infected in the crop with 4·10^6 Candida albicans cells, grown on Sabouraud broth for 48 hours at 37° C. and diluted with saline. The volume of the inoculum was 1 ml. The drug under investigation were premixed in 500 mg of lacton and thereafter admixed in 1000 g of meal without any additives. The concentration of the drug under investigation in the meal was expressed in mg/kg. The animals were given the medicated feed for 13 consecutive days starting on the day of infection. At the end of the experiment all animals were sacrificed. At autopsy the crops were removed, emptied and grinded in an ultra-turrax mixer in 15 ml of sterile saline. Colony counting was done on Sabouraud agar and the results given in Tables I and Ii represent the ED50, i.e., the dose of the drug whereby the crops of 50% of the animals were completely negative for Candida albicans.

Setting [3] is: Table I, read-out: Vaginal candidosis in rats: lowest effective dose.
Setting [4] is: Table II, read-out: Vagingal candidosis in rats: lowest effective dose.

As to `Sc1nnnn1-c1ccc(OC[C@H]2CO[C@](Cn3ccnc3)(c3ccc(Cl)cc3Cl)O2)cc1` (relative stereo), in the experiment with Candida albicans [1] (setting [3]), the minimal effective dose was 2.5 mg/kg.
For the compound `Clc1ccc([C@@]2(Cn3ccnc3)OC[C@H](COc3ccc(-n4ccnc4)cc3)O2)c(Cl)c1` (relative stereo), in the experiment with Candida albicans [1] (setting [3]), the minimal effective dose amounted to 1.25 mg/kg. In addition, the “Crop candidosis in Turkeys: ED50 in mg/kg of feed.” value (shortened to “Crop candidosis … of feed.”) in the experiment with Candida albicans [2] is given as 8 mg/kg of feed.
As to `COc1ccc([C@@]2(Cn3ccnc3)OC[C@H](COc3ccc(-n4ccnc4)cc3)O2)cc1` (relative stereo), in the experiment on Candida albicans [1] (setting [4]), the minimal effective dose was found to be 5 mg/kg.
Turning to `Clc1ccc([C@@]2(Cn3ccnc3)OC[C@H](COc3ccc(-n4ncnc4-c4ccccc4)cc3)O2)c(Cl)c1` (relative stereo), the minimal effective dose with Candida albicans [1] (setting [3]) came to 10 mg/kg.
`CS(=O)(=O)c1nccn1-c1ccc(OC[C@H]2CO[C@](Cn3ccnc3)(c3ccc(Cl)cc3Cl)O2)cc1` (relative stereo): the minimal effective dose in the experiment on Candida albicans [1] (setting [3]) was 5 mg/kg.
As for `CC(C)Sc1nccn1-c1ccc(OC[C@H]2CO[C@](Cn3ccnc3)(c3ccc(Cl)cc3Cl)O2)cc1` (relative stereo), the “Crop candidosis … of feed.” value in the experiment with Candida albicans [2] was 31 mg/kg of feed.
In the case of `Clc1ccc([C@@]2(Cn3ccnc3)OC[C@H](COc3ccc(-n4ccnc4-c4ccccc4)cc3)O2)c(Cl)c1` (relative stereo), the minimal effective dose in the experiment on Candida albicans [1] (setting [3]) amounted to 5 mg/kg. Moreover, the “Crop candidosis … of feed.” value with Candida albicans [2] was 125 mg/kg of feed.
Take `CCOc1nncn1-c1ccc(OC[C@H]2CO[C@](Cn3ccnc3)(c3ccc(Cl)cc3Cl)O2)cc1` (relative stereo): the minimal effective dose in the experiment with Candida albicans [1] (setting [3]) worked out at 2.5 mg/kg. Also, the “Crop candidosis … of feed.” value in the experiment with Candida albicans [2] is 31 mg/kg of feed.
For `Clc1ccc([C@@]2(Cn3ccnc3)OC[C@H](COc3ccc(-n4cnnn4)cc3)O2)c(Cl)c1` (relative stereo), in the experiment on Candida albicans [2], the “Crop candidosis … of feed.” value is 31 mg/kg of feed.
In the case of `Cc1nccn1-c1ccc(OC[C@H]2CO[C@](Cn3ccnc3)(c3ccc(Cl)cc3Cl)O2)cc1` (relative stereo), the minimal effective dose in the experiment on Candida albicans [1] (setting [3]) turned out to be 10 mg/kg. Moreover, the “Crop candidosis … of feed.” value in the experiment on Candida albicans [2] is reported as 125 mg/kg of feed.
In the case of `CCCSc1nccn1-c1ccc(OC[C@H]2CO[C@](Cn3ccnc3)(c3ccc(Cl)cc3Cl)O2)cc1` (relative stereo), the minimal effective dose with Candida albicans [1] (setting [3]) is 5 mg/kg. For the same compound, the “Crop candidosis … of feed.” value in the experiment on Candida albicans [2] is listed as 31 mg/kg of feed.
Regarding `CCn1nc(C)n(-c2ccc(OC[C@H]3CO[C@](Cn4ccnc4)(c4ccc(Cl)cc4Cl)O3)cc2)c1=O` (relative stereo), the minimal effective dose in the experiment on Candida albicans [1] (setting [3]) worked out at 2.5 mg/kg.
Take `Clc1ccc(C2(Cn3ccnc3)OCC(COc3cccc(-n4ccnc4)c3)O2)c(Cl)c1` (stereo not drawn): the minimal effective dose with Candida albicans [1] (setting [4]) turned out to be 2.5 mg/kg.
Consider `Clc1ccc([C@@]2(Cn3ccnc3)OC[C@H](COc3ccc(-n4cncn4)cc3)O2)c(Cl)c1` (relative stereo), for which, in the experiment on Candida albicans [1] (setting [3]), the minimal effective dose stood at 1.25 mg/kg. Moreover, the “Crop candidosis … of feed.” value in the experiment with Candida albicans [2] is 16 mg/kg of feed.
On the same counts, the results for `Clc1ccc([C@@]2(Cn3ccnc3)OC[C@H](COc3ccc(-n4cccc4)cc3)O2)c(Cl)c1` (relative stereo) are 2.5 mg/kg and 125 mg/kg of feed.
As to `Cc1nnc([S+](C)[O-])n1-c1ccc(OC[C@H]2CO[C@](Cn3ccnc3)(c3ccc(Cl)cc3Cl)O2)cc1` (relative stereo), in the experiment with Candida albicans [1] (setting [3]), the minimal effective dose was 10 mg/kg. The “Crop candidosis … of feed.” value with Candida albicans [2] was 16 mg/kg of feed.
On the same counts, the results for `Cc1ncnn1-c1ccc(OC[C@H]2CO[C@](Cn3ccnc3)(c3ccc(Cl)cc3Cl)O2)cc1` (relative stereo) are 1.25 mg/kg and 8 mg/kg of feed.
For `Cc1nn(C(C)C)c(=O)n1-c1ccc(OC[C@H]2CO[C@](Cn3ccnc3)(c3ccc(Cl)cc3Cl)O2)cc1` (relative stereo), the minimal effective dose in the experiment with Candida albicans [1] (setting [3]) was 5 mg/kg.
Regarding `CSc1ncc(C)n1-c1ccc(OC[C@H]2CO[C@](Cn3ccnc3)(c3ccc(Cl)cc3Cl)O2)cc1` (relative stereo), the “Crop candidosis … of feed.” value in the experiment with Candida albicans [2] is reported as 31 mg/kg of feed.
As to `CC(C)n1ncn(-c2ccc(OC[C@H]3CO[C@](Cn4ccnc4)(c4ccc(Cl)cc4Cl)O3)cc2)c1=O` (relative stereo), in the experiment with Candida albicans [1] (setting [3]), the minimal effective dose is less than 10 mg/kg.
On to `CCn1ncn(-c2ccc(OC[C@H]3CO[C@](Cn4ccnc4)(c4ccc(Cl)cc4Cl)O3)cc2)c1=O` (relative stereo), for which the minimal effective dose with Candida albicans [1] (setting [3]) worked out at 5 mg/kg. Besides, the “Crop candidosis … of feed.” value with Candida albicans [2] was 31 mg/kg of feed.
Take `Cc1ccn(-c2ccc(OC[C@H]3CO[C@](Cn4ccnc4)(c4ccc(Cl)cc4Cl)O3)cc2)n1` (relative stereo): the minimal effective dose in the experiment on Candida albicans [1] (setting [3]) turned out to be 2.5 mg/kg.
The same measure, in the same setting: as for `C[S+]([O-])c1nncn1-c1ccc(OC[C@H]2CO[C@](Cn3ccnc3)(c3ccc(Cl)cc3Cl)O2)cc1` (relative stereo), the figure is 2.5 mg/kg.
In the case of `CSc1nnc(C)n1-c1ccc(OC[C@H]2CO[C@](Cn3ccnc3)(c3ccc(Cl)cc3Cl)O2)cc1` (relative stereo), in the experiment on Candida albicans [1] (setting [3]), the minimal effective dose is 2.5 mg/kg.
In the case of `Cc1n[nH]c(=O)n1-c1ccc(OC[C@H]2CO[C@](Cn3ccnc3)(c3ccc(Cl)cc3Cl)O2)cc1` (relative stereo), in the experiment on Candida albicans [1] (setting [3]), the minimal effective dose was less than 10 mg/kg.
On to `CSc1nncn1-c1ccc(OC[C@H]2CO[C@](Cn3ccnc3)(c3ccc(Cl)cc3Cl)O2)cc1` (relative stereo), for which the minimal effective dose with Candida albicans [1] (setting [3]) turned out to be 10 mg/kg. Moreover, in the experiment on Candida albicans [2], the “Crop candidosis … of feed.” value was 8 mg/kg of feed.
`Cc1nn(C)c(=O)n1-c1ccc(OC[C@H]2CO[C@](Cn3ccnc3)(c3ccc(Cl)cc3Cl)O2)cc1` (relative stereo): the minimal effective dose in the experiment on Candida albicans [1] (setting [3]) worked out at 1.25 mg/kg.
As to `CCSc1nccn1-c1ccc(OC[C@H]2CO[C@](Cn3ccnc3)(c3ccc(Cl)cc3Cl)O2)cc1` (relative stereo), the minimal effective dose in the experiment on Candida albicans [1] (setting [3]) was found to be 5 mg/kg.
On to `CSc1nccn1-c1ccc(OC[C@H]2CO[C@](Cn3ccnc3)(c3ccc(Cl)cc3Cl)O2)cc1` (relative stereo), for which the minimal effective dose in the experiment with Candida albicans [1] (setting [3]) came out at 5 mg/kg. Moreover, in the experiment with Candida albicans [2], the “Crop candidosis … of feed.” value was 31 mg/kg of feed.
`CCCn1ncn(-c2ccc(OC[C@H]3CO[C@](Cn4ccnc4)(c4ccc(Cl)cc4Cl)O3)cc2)c1=O` (relative stereo): the minimal effective dose in the experiment with Candida albicans [1] (setting [3]) is less than 10 mg/kg.
Same read-out and setting: the same measure for `CSc1nc(C)n(-c2ccc(OC[C@H]3CO[C@](Cn4ccnc4)(c4ccc(Cl)cc4Cl)O3)cc2)n1` (relative stereo): 2.5 mg/kg.
As for `CCc1ncnn1-c1ccc(OC[C@H]2CO[C@](Cn3ccnc3)(c3ccc(Cl)cc3Cl)O2)cc1` (relative stereo), the minimal effective dose in the experiment on Candida albicans [1] (setting [3]) stood at 5 mg/kg. Also, the “Crop candidosis … of feed.” value in the experiment with Candida albicans [2] was 8 mg/kg of feed.
On the same counts, the results for `CSc1ncn(-c2ccc(OC[C@H]3CO[C@](Cn4ccnc4)(c4ccc(Cl)cc4Cl)O3)cc2)n1` (relative stereo) are 1.25 mg/kg and 16 mg/kg of feed.
For `Clc1ccc([C@@]2(Cn3ccnc3)OC[C@H](COc3ccc(-n4cccn4)cc3)O2)c(Cl)c1` (relative stereo), in that order: 2.5 mg/kg and 16 mg/kg of feed.
Regarding `Clc1ccc(C2(Cn3cncn3)OCC(COc3ccc(-n4ccnc4)cc3)O2)c(Cl)c1` (stereo not drawn), in the experiment on Candida albicans [1] (setting [4]), the minimal effective dose was 1.25 mg/kg. In addition, the “Crop candidosis in Turkeys: ED50 in mg/kg in feed” value with Candida albicans [2] (Table II) came to 8 mg/kg in feed.

The values are drawn from US4160841A, “Heterocyclic derivatives of 1-(1,3-dioxolan-2-ylmethyl)-1H-imidazoles” (Janssen Pharmaceutica, N.V., priority 1977, dated 1979).
